What was measured:
Klebsiella oxytoca = test: antibiogram by diffusion on Mueller-Hinton agar with antibiotic wafers; format: cell-based; settings: Table C1; K. oxytoca phenotype Wild; six wafers, disk loads of Table B
Protocol: (§1) The inoculum was prepared by making a suspension of bacteria directly from colonies put into solution in tubes of sterile water so that the solution presented accurate opacity as determined with a spectrophotometer equivalent to the opacity of a 0.5 standard in the McFarland range. This bacterial suspension concentration is standardized since a more concentrated inoculum would lead to smaller diameters for the inhibition zone, and vice versa.
(§2) The inoculum corresponds to concentrations of about 10^8 CFU/mL for Escherichia coli, Klebsiella pneumoniae, Proteus mirabilis, Klebsiella oxytoca, Enterobacter cloacea, Enterobacter aerogenes, Entercoccus faecalis, Pseudomonas aeruginosa, Staphylococcus aureus, and Staphylococcus epidermidis. These are the ten species bacteria that are encountered the most frequently in human pathologies.
(§3) 1.2) The bacterial sample was deposited on a solid culture medium in a petri dish having a diameter of 90 mm or in a square dish having a side of 120 mm, the medium being constituted by a Mueller-Hinton agar specific for (EUCAST) antibiograms. Ideally, it should be used in the 15 minutes (min) following preparation of the suspension.
(§4) Seeding was done by the method of diffusion on an agar medium by flooding in which excess bacterial suspension was added to the Mueller-Hinton agar. After homogenizing, excess liquid was discarded in order to avoid over-inoculating the dishes. It is necessary to wait beforehand for the surface of the agar to be dry in order to eliminate any trace of moisture encouraging bacterial invasion.
(§5) The disks of the antibiotic wafers were deposited within 15 min after inoculating the agar. The antibiotic impregnated disks were deposited using an automatic dispenser that placed the disks firmly on the surface of the inoculated and dried agar. The number of disks deposited per dish was limited because of inhibition zone overlap and in order to limit interference between antibiotics. It is important for the inhibition diameters to be measurable. The antibiograms were then incubated at 37° C. for 18 hours (h) to 24 h.
(§6) The antibiotic wafers were made of high quality absorbent paper with a diameter of 6 mm and they were impregnated with antibiotics at concentrations in the range 1 micrograms (μg) to 300 μg approximately, depending on the antibiotic.
(§7) In the examples below, reference disks were used as sold by the suppliers i2a (Montpellier, France), BD (Becton Dickinson, USA), Bio-Rad (Hercules, USA), Biomerieux (Marcy l′Etoile, France) containing the following antibiotics and carrying the following codes and the following doses: AMX (amoxicillin) 25 μg: AMC (amoxicillin-clavulanic acid) 20 μg-10 μg; GM for gentamicin, 15 μg; SXT (trimethoprim-sulfamethoxazole) 1.25/23.75 μg; TIC (ticarcillin) 75 μg; TCC (ticarcillin-clavulanic acid) […]; TZP (piperacillin-tazobactam) 75/10 μg; CAZ (ceftazidime) 30 μg; IMP or IPM (imipeneme) 10 μg; COL (colistin) 50 μg; FOX (cefoxitine) 30 μg; VAN (vancomycin) 30 μg; TEC (teicoplanin) 30 μg; CLI or DA (clindamycin) 2 μg; CRO (ceftriaxone) 30 μg; CIP (ciprofloxacin) 5 μg; OFX (ofloxacin) 5 μg; CTX (cefotaxime) 5 μg; AN or AK (amikacin) 30 μg; TM (tobramycin) 10 μg; FOX (cefoxitine) 30 μg; ATM (aztreonam) 30 μg; ERT (ertapenem) 10 μg; FF (fosfomycin) 200 μg; DO (doxycycline) 30 μg; K (kanamycin) 1000 μg; L (lincomycin) 15 μs; LNZ (linezolid) 10 μg; AN (nalidixic acid) 30 μg; NOR (norfloxacin) 10 μg; PT (pristinamycin) 15 μg; RA (rifampicin) 5 μg; and E (erythromycin) 15 μg.

Proteus mirabilis = test: as above; format: cell-based; settings: Table C1, six wafers, disk loads of Table B
Protocol: as §1, §2, §3, §4, §5, §6, §7

Klebsiella pneumoniae = test: as above; format: cell-based; settings: for resistance (I, R) or sensitivity (S): Table C1, six wafers, disk loads of Table B; for resistant (I/R) or sensitive (S): Table C2, sixteen wafers, square dish
Protocol: as §1, §2, §3, §4, §5, §6, §7

Escherichia coli = test: as above; format: cell-based; settings: for resistance (I, R) or sensitivity (S): Table C1, disk loads of Table B; for resistant (I/R) or sensitive (S): Table C2, square dish
Protocol: as §1, §2, §3, §4, §5, §6, §7

Pseudomonas aeruginosa = test: as above; format: cell-based; settings: Table C1, six wafers, disk loads of Table B
Protocol: as §1, §2, §3, §4, §5, §6, §7

Enterobacter aerogenes = test: as above; format: cell-based; settings: Table C1, six wafers, disk loads of Table B
Protocol: as §1, §2, §3, §4, §5, §6, §7

Enterobacter cloacea = test: as above; format: cell-based; settings: Table C1, six wafers, disk loads of Table B
Protocol: as §1, §2, §3, §4, §5, §6, §7

BSBL bacteria = settings: all of the BSBL bacteria in Table C1
Source text: Synergies are generated with the method on agar by the antibiotics diffusing in the agar as a result of the fact that providing the distance between two antibiotics is small enough (in the range 2 centimeters (cm) to 2.5 cm for Gram negative bacteria) they are capable of diffusing over a common portion of the agar, and as a result it is the association of the two antibiotics in this specific location that makes it possible, where appropriate, to see the appearance of a new inhibition zone, which is the synergy zone.
In the event of synergy occurring, it is possible to see mechanisms of synergy between two antibiotics since an additional inhibition zone appears generally between the two antibiotics in question. It may be in the form of an enlargement of the diameter around the disk A going towards the disk B if A and B present mutual synergy.
The BSBL phenotype includes a synergy phenotype between ceftriaxone and clavulanic acid, and thus between CRO and TCC or AMC (for all of the BSBL bacteria in the table).

[1] = P. mirabilis phenotype Hl cephalosporinase
[2] = P. mirabilis phenotype Hl penicillinase
[3] = P. mirabilis phenotype Inhibitor resistant penicillinase
[4] = P. mirabilis phenotype Ll penicillinase
[5] = K. pneumoniae phenotype Carbapenemase
[6] = K. pneumoniae phenotype Hl cephalosporinase
[7] = K. pneumoniae phenotype Hl penicillinase
[8] = K. pneumoniae phenotype Ll penicillinase
[9] = E. coli phenotype BSBL, six wafers
[10] = E. coli phenotype Carbapenemase, six wafers
[11] = E. coli phenotype Hl cephalosporinase, six wafers
[12] = E. coli phenotype Hl penicillinase, six wafers
[13] = E. coli phenotype Inhibitor resistant penicillinase, six wafers
[14] = E. coli phenotype Ll penicillinase, six wafers
[15] = E. coli phenotype Wild, six wafers in a circle
[16] = P. aeruginosa Abnormal phenotype
[17] = P. aeruginosa phenotype Carbapenemase
[18] = P. aeruginosa phenotype Penicillinase
[19] = P. aeruginosa phenotype Selective imipenem permeability
[20] = K. pneumoniae phenotype Cephalosporinase + R to aminosides + R to cotrimoxazole
[21] = E. coli phenotype Cephalosporinase + R to fluoroquinolones + R to cotrimoxazole + partial R to aminosides, sixteen wafers
[22] = E. coli phenotype Hl penicillinase + R to fluoroquinolones + R to cotrimoxazole + partial R to aminosides, sixteen wafers
[23] = E. coli phenotype Wild, sixteen wafers in a rectangular grid

| Compound | resistance (I, R) or sensitivity (S) (Klebsiella oxytoca) | resistance (I, R) or sensitivity (S) (Proteus mirabilis; [1]) | resistance (I, R) or sensitivity (S) (Proteus mirabilis; [2]) | resistance (I, R) or sensitivity (S) (Proteus mirabilis; [3]) | resistance (I, R) or sensitivity (S) (Proteus mirabilis; [4]) | resistance (I, R) or sensitivity (S) (Proteus mirabilis; P. mirabilis phenotype Wild) | resistance (I, R) or sensitivity (S) (Klebsiella pneumoniae; K. pneumoniae phenotype BSBL) | resistance (I, R) or sensitivity (S) (Klebsiella pneumoniae; [5]) | resistance (I, R) or sensitivity (S) (Klebsiella pneumoniae; [6]) | resistance (I, R) or sensitivity (S) (Klebsiella pneumoniae; [7]) | resistance (I, R) or sensitivity (S) (Klebsiella pneumoniae; [8]) | resistance (I, R) or sensitivity (S) (Klebsiella pneumoniae; K. pneumoniae phenotype Wild) | resistance (I, R) or sensitivity (S) (Escherichia coli; [9]) | resistance (I, R) or sensitivity (S) (Escherichia coli; [10]) | resistance (I, R) or sensitivity (S) (Pseudomonas aeruginosa; [16]) | resistance (I, R) or sensitivity (S) (Pseudomonas aeruginosa; P. aeruginosa phenotype BSBL) | resistance (I, R) or sensitivity (S) (Pseudomonas aeruginosa; [17]) | resistance (I, R) or sensitivity (S) (Pseudomonas aeruginosa; [18]) | resistance (I, R) or sensitivity (S) (Pseudomonas aeruginosa; [19]) | resistance (I, R) or sensitivity (S) (Pseudomonas aeruginosa; P. aeruginosa phenotype Wild) | other results |
| --- | --- | --- | --- | --- | --- | --- | --- | --- | --- | --- | --- | --- | --- | --- | --- | --- | --- | --- | --- | --- | --- |
| CO/N=C(\C(=O)N[C@@H]1C(=O)N2C(C(=O)[O-])=C(C[N+]3(C)CCCC3)CS[C@H]12)c1csc(N)n1 [FEP, cefepime] | S | R | S | S | S | S | R | R | S | S | S | S | R | R | R | I/R | R | S | S | S | resistance (I, R) or sensitivity (S) (Escherichia coli; [11]): R; resistance (I, R) or sensitivity (S) (Escherichia coli; [12]): S; resistance (I, R) or sensitivity (S) (Escherichia coli; [13]): S; resistance (I, R) or sensitivity (S) (Escherichia coli; [14]): S; resistance (I, R) or sensitivity (S) (Escherichia coli; [15]): S; resistance (I, R) or sensitivity (S) (Enterobacter aerogenes; E. aerogenes phenotype BSBL): R/I; resistance (I, R) or sensitivity (S) (Enterobacter aerogenes; E. aerogenes phenotype Wild): S; resistance (I, R) or sensitivity (S) (Enterobacter cloacea; E. cloacae phenotype BSBL): R; resistance (I, R) or sensitivity (S) (Enterobacter cloacea; E. cloacae phenotype Wild): S |
| C[C@@H](O)[C@H]1C(=O)N2C(C(=O)O)=C(SCCN=CN)C[C@H]12 [IMP, imipenem] | S | S | S | S | S | S | S | R | S | S | S | S | S | R | S | S | R | S | I | S | resistant (I/R) or sensitive (S) (Klebsiella pneumoniae; [20]): S; resistant (I/R) or sensitive (S) (Klebsiella pneumoniae; K. pneumoniae phenotype Wild): S; resistance (I, R) or sensitivity (S) (Escherichia coli; [11]): S; resistance (I, R) or sensitivity (S) (Escherichia coli; [12]): S; resistance (I, R) or sensitivity (S) (Escherichia coli; [13]): S; resistance (I, R) or sensitivity (S) (Escherichia coli; [14]): S; resistance (I, R) or sensitivity (S) (Escherichia coli; [15]): S; resistant (I/R) or sensitive (S) (Escherichia coli; [21]): S; resistant (I/R) or sensitive (S) (Escherichia coli; [22]): S; resistant (I/R) or sensitive (S) (Escherichia coli; [23]): S; resistance (I, R) or sensitivity (S) (Enterobacter aerogenes; E. aerogenes phenotype BSBL): S; resistance (I, R) or sensitivity (S) (Enterobacter aerogenes; E. aerogenes phenotype Wild): S; resistance (I, R) or sensitivity (S) (Enterobacter cloacea; E. cloacae phenotype BSBL): S; resistance (I, R) or sensitivity (S) (Enterobacter cloacea; E. cloacae phenotype Wild): S |
| piperacillin-tazobactam [TZP] | S |  |  |  |  |  | R/I | R | I/R | S/I/R | R | S |  |  | R/S | I/R | R | I/S | S | S | resistance (I, R) or sensitivity (S) (Enterobacter aerogenes; E. aerogenes phenotype BSBL): R; resistance (I, R) or sensitivity (S) (Enterobacter aerogenes; E. aerogenes phenotype Wild): S; resistance (I, R) or sensitivity (S) (Enterobacter cloacea; E. cloacae phenotype BSBL): R; resistance (I, R) or sensitivity (S) (Enterobacter cloacea; E. cloacae phenotype Wild): S |
| ticarcillin-clavulanic acid [TCC] |  | R | I | R | S | S |  |  |  |  |  |  | R | R | R | I/R | R | I/R | S | S | synergy phenotype between antibiotics (BSBL bacteria): synergy; resistant (I/R) or sensitive (S) (Klebsiella pneumoniae; [20]): R; resistant (I/R) or sensitive (S) (Klebsiella pneumoniae; K. pneumoniae phenotype Wild): R; synergy zone between two antibiotic wafers placed side by side (Escherichia coli; E. coli cephalosporinase phenotype (FIGS. 2D, 2E)): absence of a zone of synergy; synergy zone between two antibiotic wafers placed side by side (Escherichia coli; E. coli strain of BSBL phenotype, champagne-cork shaped inhibition zone): presence of a zone of synergy; resistance (I, R) or sensitivity (S) (Escherichia coli; [11]): R; resistance (I, R) or sensitivity (S) (Escherichia coli; [12]): I/R; resistance (I, R) or sensitivity (S) (Escherichia coli; [13]): R; resistance (I, R) or sensitivity (S) (Escherichia coli; [14]): S; resistance (I, R) or sensitivity (S) (Escherichia coli; [15]): S; resistant (I/R) or sensitive (S) (Escherichia coli; [21]): R; resistant (I/R) or sensitive (S) (Escherichia coli; [22]): I; resistant (I/R) or sensitive (S) (Escherichia coli; [23]): S |
